In ChEMBL document CHEMBL1154202, “Arylcarboxyamino-substituted diaryl ureas as potent and selective FLT3 inhibitors” (Bioorg Med Chem Lett, 2009):
The source made the active and inactive calls. The rule behind the calls is not given here.

What was measured:
MV4-11 [1] = assay: Antitumor activity against human MV411 cells assessed as inhibition of cell proliferation; type: functional, cell-based
[2] = biological target: T1, Receptor-type tyrosine-protein kinase FLT3 (Homo sapiens, UniProt P36888)
T1 sequence (P36888 whole entry): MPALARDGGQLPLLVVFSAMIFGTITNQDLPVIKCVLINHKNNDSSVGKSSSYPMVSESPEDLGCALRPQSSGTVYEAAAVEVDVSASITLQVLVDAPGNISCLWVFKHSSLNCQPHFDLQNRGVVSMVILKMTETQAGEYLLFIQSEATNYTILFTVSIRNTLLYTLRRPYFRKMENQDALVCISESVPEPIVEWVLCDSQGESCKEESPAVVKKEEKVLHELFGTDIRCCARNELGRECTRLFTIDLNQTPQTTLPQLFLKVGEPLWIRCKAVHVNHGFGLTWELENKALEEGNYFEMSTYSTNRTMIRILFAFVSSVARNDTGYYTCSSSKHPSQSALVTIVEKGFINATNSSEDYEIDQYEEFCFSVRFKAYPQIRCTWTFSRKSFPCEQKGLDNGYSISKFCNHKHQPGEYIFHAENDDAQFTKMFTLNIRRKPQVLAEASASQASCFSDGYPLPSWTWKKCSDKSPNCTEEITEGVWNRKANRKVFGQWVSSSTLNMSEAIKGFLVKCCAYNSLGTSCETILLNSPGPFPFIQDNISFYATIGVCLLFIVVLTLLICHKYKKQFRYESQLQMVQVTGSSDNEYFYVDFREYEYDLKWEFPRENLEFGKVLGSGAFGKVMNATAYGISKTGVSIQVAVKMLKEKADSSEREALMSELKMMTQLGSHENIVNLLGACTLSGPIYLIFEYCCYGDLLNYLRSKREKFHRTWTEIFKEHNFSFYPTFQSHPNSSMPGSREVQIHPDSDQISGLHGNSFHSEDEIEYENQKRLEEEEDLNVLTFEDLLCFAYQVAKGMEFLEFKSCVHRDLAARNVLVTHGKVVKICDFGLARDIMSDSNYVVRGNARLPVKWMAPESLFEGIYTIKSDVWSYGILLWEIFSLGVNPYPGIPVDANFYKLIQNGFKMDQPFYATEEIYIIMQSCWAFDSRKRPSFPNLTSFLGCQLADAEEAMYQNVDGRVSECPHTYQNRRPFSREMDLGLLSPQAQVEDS

MV4-11 [3] = assay: Antitumor activity against human MV411 cells in xenografted athymic nude mouse model assessed as decrease in tumor size at 10 mg/kg, po qd for 28 days measured after 29 to 36 days; type: functional
MV4-11 [4] = assay: Antitumor activity against human MV411 cells in xenografted athymic nude mouse model assessed as decrease in tumor size at 30 mg/kg, po qd for 28 days; type: functional, organism-based; set-up: dose 30 mg/kg
[5] = biological target: Proto-oncogene tyrosine-protein kinase receptor Ret (Homo sapiens, UniProt P07949); assay: Binding affinity to RET
[6] = biological target: Vascular endothelial growth factor receptor 2 (Homo sapiens, UniProt P35968); assay: Binding affinity to VEGFR2
MV4-11 [7] = assay: Antitumor activity against human MV411 cells in xenografted athymic nude mouse model assessed as decrease in tumor size at 10 mg/kg, po qd for 28 days measured after 36 to 56 days; type: functional, organism-based; set-up: dose 10 mg/kg
[8] = biological target: Platelet-derived growth factor receptor beta (Homo sapiens, UniProt P09619); assay: Binding affinity to PDGFRbeta
MV4-11 [9] = assay: Antitumor activity against human MV411 cells in xenografted athymic nude mouse model assessed as decrease in tumor size at 10 mg/kg, po qd for 28 days; type: functional, organism-based; set-up: dose 10 mg/kg
[10] = Half life in nude mouse at 10 mg/kg, po; type: ADME, organism-based; set-up: dose 10 mg/kg, route oral; settings: in vivo
Mus musculus [11] = assay: AUC in nude mouse at 10 mg/kg, po; type: ADME, organism-based, Plasma; set-up: dose 10 mg/kg, route oral; settings: in vivo
[12] = Cmax in nude mouse at 10 mg/kg, po; type: ADME, organism-based; set-up: dose 10 mg/kg, route oral; settings: in vivo
[13] = biological target: Mast/stem cell growth factor receptor Kit (Homo sapiens, UniProt P10721); assay: Binding affinity to KIT
[14] = biological target: Macrophage colony-stimulating factor 1 receptor (Homo sapiens, UniProt P07333); assay: Binding affinity to CSF1R
Mus musculus [15] = assay: Toxicity in human MV411 cells in xenografted athymic nude mouse model assessed as change in body weight at 10 mg/kg, po qd for 28 days; type: organism-based, MV4-11; set-up: dose 10 mg/kg, route oral; settings: in vivo, 672 h

Sequence of Platelet-derived growth factor receptor beta (P09619 whole entry): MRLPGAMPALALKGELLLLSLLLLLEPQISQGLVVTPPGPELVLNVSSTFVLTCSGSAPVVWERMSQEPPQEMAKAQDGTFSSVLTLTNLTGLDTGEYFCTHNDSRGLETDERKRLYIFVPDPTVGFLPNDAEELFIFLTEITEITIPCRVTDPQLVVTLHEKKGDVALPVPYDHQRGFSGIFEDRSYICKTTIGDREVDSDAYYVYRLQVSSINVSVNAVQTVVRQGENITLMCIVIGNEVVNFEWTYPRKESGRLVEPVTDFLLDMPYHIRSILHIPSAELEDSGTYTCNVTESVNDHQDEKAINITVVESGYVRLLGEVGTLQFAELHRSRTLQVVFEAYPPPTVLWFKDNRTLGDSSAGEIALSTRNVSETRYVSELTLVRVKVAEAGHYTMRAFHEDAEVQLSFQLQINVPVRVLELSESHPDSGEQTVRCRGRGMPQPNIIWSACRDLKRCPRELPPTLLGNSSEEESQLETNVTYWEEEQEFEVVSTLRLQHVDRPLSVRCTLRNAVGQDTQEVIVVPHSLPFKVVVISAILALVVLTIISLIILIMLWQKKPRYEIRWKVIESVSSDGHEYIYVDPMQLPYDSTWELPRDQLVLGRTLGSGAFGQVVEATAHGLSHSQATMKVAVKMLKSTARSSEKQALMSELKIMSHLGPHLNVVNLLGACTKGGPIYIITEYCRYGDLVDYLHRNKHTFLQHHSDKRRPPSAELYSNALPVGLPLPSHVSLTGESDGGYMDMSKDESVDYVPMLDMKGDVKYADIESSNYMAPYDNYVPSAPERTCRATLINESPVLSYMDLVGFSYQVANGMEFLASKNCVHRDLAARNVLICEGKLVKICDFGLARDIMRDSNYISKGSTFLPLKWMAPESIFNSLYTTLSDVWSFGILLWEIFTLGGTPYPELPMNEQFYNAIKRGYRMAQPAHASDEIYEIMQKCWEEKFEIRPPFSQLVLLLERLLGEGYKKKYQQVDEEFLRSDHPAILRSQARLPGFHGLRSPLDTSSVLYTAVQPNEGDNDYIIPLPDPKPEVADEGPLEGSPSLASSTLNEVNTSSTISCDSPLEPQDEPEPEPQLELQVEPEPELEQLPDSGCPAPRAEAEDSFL
Sequence of Proto-oncogene tyrosine-protein kinase receptor Ret (P07949 whole entry): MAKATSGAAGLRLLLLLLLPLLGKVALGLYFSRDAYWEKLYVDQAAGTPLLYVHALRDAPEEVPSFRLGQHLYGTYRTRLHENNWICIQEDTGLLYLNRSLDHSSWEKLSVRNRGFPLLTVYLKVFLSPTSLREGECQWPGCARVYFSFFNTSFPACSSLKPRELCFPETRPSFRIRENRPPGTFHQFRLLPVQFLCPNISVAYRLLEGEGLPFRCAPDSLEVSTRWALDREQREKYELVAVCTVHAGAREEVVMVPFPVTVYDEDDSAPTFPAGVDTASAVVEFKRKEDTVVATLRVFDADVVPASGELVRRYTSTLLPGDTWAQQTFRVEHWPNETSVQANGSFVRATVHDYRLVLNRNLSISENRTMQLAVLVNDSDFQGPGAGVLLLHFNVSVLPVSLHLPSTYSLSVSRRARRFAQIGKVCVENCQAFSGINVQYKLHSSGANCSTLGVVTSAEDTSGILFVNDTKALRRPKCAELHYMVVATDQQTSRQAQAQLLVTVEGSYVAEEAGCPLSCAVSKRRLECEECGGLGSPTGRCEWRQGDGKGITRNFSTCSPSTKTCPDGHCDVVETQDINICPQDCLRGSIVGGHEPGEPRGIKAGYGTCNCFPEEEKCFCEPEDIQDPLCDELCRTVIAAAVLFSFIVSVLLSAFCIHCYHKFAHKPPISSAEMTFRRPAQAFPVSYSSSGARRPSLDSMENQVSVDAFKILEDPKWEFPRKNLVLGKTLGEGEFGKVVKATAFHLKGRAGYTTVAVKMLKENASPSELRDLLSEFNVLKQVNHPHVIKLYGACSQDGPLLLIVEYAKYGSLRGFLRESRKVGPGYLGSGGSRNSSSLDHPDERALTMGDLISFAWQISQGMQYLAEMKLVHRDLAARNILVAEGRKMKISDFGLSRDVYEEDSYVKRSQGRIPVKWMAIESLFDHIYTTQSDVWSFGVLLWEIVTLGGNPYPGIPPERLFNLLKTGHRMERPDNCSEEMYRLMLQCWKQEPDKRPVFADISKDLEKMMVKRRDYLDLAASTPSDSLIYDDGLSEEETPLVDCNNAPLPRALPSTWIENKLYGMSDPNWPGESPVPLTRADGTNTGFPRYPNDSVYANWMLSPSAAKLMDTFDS
Sequence of Mast/stem cell growth factor receptor Kit (P10721 whole entry): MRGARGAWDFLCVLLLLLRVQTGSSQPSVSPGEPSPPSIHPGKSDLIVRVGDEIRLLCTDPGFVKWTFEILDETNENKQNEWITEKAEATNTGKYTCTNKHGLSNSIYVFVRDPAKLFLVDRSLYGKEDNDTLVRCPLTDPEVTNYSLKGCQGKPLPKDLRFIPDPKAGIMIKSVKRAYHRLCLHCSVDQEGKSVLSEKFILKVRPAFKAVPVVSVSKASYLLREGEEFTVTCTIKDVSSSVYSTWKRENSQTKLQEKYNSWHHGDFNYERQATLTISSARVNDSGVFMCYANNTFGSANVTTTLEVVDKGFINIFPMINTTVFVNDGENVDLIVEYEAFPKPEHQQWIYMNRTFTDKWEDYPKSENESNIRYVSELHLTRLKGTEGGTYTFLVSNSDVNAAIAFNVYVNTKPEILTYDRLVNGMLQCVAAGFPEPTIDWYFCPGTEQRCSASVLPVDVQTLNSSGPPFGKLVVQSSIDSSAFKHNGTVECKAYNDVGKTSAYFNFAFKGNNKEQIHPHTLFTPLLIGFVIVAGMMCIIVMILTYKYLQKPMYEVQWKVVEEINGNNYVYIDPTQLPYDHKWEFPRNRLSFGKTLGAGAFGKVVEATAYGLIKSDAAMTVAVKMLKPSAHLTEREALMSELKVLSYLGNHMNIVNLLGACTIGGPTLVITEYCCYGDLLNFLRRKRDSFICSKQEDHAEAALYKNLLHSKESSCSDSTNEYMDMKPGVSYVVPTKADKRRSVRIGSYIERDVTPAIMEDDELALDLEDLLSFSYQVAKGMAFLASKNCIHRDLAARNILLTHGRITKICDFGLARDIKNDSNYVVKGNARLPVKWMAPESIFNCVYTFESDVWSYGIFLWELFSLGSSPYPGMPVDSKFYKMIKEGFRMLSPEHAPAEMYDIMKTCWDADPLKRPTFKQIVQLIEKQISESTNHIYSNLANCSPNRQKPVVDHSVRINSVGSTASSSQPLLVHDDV
Sequence of Vascular endothelial growth factor receptor 2 (P35968 whole entry): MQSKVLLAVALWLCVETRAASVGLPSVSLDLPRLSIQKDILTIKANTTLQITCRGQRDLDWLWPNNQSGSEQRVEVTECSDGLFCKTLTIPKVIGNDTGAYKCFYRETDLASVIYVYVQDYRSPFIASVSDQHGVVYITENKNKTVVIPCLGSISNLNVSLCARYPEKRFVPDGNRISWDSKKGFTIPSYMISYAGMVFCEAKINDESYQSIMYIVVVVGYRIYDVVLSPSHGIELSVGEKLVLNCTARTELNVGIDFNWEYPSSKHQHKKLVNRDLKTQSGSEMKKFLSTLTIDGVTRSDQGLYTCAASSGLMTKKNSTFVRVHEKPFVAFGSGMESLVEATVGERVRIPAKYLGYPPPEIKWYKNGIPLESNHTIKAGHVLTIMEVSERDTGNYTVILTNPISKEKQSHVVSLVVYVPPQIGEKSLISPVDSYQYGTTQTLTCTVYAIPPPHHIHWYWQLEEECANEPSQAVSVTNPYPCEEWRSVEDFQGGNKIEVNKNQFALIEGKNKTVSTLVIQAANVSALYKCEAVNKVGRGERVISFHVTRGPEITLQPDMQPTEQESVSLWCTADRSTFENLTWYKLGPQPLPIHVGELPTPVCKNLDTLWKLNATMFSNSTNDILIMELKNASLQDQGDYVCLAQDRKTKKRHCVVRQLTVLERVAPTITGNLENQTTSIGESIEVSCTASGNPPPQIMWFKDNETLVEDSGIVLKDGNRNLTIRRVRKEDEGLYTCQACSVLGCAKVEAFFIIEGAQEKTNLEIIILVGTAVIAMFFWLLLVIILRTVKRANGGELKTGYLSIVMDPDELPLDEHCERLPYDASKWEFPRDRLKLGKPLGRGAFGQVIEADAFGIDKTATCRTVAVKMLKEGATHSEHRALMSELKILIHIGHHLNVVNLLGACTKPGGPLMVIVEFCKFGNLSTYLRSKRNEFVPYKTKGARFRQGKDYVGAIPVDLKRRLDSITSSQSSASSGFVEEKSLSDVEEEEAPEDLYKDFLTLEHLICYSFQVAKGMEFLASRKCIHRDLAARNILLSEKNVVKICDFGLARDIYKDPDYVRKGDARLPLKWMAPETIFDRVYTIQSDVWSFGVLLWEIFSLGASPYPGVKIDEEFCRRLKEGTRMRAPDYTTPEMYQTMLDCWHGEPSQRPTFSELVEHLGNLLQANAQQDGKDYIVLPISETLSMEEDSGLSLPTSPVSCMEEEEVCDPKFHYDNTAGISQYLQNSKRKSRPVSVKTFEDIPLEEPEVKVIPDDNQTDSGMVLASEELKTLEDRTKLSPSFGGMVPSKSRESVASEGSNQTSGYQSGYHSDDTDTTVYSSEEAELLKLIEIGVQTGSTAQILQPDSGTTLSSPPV

With CC(C)(C)c1cc(NC(=O)Nc2ccc(NC(=O)Cc3ccccc3)cc2)no1 the IC50 (MV4-11 [1]) was 1090 nM and the Kd [2] was 510 nM.

In the case of CCN(CC)CCNC(=O)c1c(C)[nH]c(/C=C2\C(=O)Nc3ccc(F)cc32)c1C, the Activity (MV4-11 [3]) is reported as “Active” and the Activity (MV4-11 [4]) is reported as “Active”.

CC(C)(C)c1cc(NC(=O)Nc2ccc(NC(=O)c3nccc4ccccc34)cc2)no1 gave an IC50 (MV4-11 [1]) of 2.8 nM and a Kd [2] of 0.74 nM.

CC(C)(C)c1cc(NC(=O)Nc2ccc(NC(=O)c3cccc(O)n3)cc2)no1 gave an IC50 (MV4-11 [1]) of 46.7 nM and a Kd [2] of 2.5 nM.

CC(C)(C)c1cc(NC(=O)Nc2ccc(C(=O)Nc3ccccc3)cc2)no1 gave an IC50 (MV4-11 [1]) of 101 nM and a Kd [2] of 7.4 nM.

With CC(C)(C)c1cc(NC(=O)Nc2ccc(NC(=O)c3cn4c(n3)sc3ccccc34)cc2)no1 the Kd [5] was 3 nM, the Kd [6] was > 200 nM and the Activity (MV4-11 [7]) was “inactive”. For the same molecule, the Kd [8] was 2.2 nM, the Activity (MV4-11 [9]) was “Active” and the IC50 (MV4-11 [1]) was 0.44 nM. For the same molecule, the Kd [2] was 1.6 nM, the half-life [10] was 2.3 h and the AUC (Mus musculus [11]) was 13.2 µM·h. The Cmax [12] was 2360 nM, the Kd [13] was 7.5 nM and the Kd [14] was 10 nM. The Activity (Mus musculus [15]) was < 5% and the Activity (MV4-11 [3]) was 90 mm3.

CC(C)(C)c1cc(NC(=O)Nc2ccc(NC(=O)c3ccccc3)cc2)no1 showed an IC50 (MV4-11 [1]) of 30 nM and a Kd [2] of 0.98 nM.

Molecule CC(C)(C)c1cc(NC(=O)Nc2ccc(NC(=O)c3cccnc3)cc2)no1 has an IC50 (MV4-11 [1]) of 159 nM and a Kd [2] of 15 nM.

In the case of CC(C)(C)c1cc(NC(=O)Nc2ccc(NC(=O)c3cc4ccccc4cn3)cc2)no1, the Kd [5] is reported as 7.3 nM, the Kd [6] is reported as > 200 nM and the Activity (MV4-11 [7]) is reported as “inactive”. The Kd [8] was 7 nM, the IC50 (MV4-11 [1]) was 0.29 nM and the half-life [10] was 2.2 h. It also gave an AUC (Mus musculus [11]) of 4.25 µM·h, a Cmax [12] of 1310 nM and a Kd [13] of 1.8 nM. The Activity (Mus musculus [15]) was < 5% and the Activity (MV4-11 [3]) was 90 mm3.

In the case of Cc1ccc2sc(C(=O)Nc3ccc(NC(=O)Nc4cc(C(C)(C)C)on4)cc3)cc2c1, the IC50 (MV4-11 [1]) is reported as 0.85 nM and the Kd [2] is reported as 0.77 nM.

Molecule CC(C)(C)c1cc(NC(=O)Nc2ccc(NC(=O)c3ccncc3)cc2)no1 has an IC50 (MV4-11 [1]) of 132 nM and a Kd [2] of 10.1 nM.

For CC(C)(C)c1cc(NC(=O)Nc2ccc(C(=O)Nc3ccccn3)cc2)no1, the IC50 (MV4-11 [1]) was 104 nM and the Kd [2] was 8.15 nM.

Work on CC(C)(C)c1cc(NC(=O)Nc2ccc(NC(=O)c3ccc4ccccc4c3)cc2)no1 yielded an IC50 (MV4-11 [1]) of 3.1 nM and a Kd [2] of 0.75 nM.

CC(C)(C)c1cc(NC(=O)Nc2ccc(NC(=O)C3CCNCC3)cc2)no1 gave an IC50 (MV4-11 [1]) of 10500 nM and a Kd [2] of 240 nM.

For CC(C)(C)c1cc(NC(=O)Nc2ccc(C(=O)Nc3ccncc3)cc2)no1, the IC50 (MV4-11 [1]) was 414 nM and the Kd [2] was 38.4 nM.

For CC(C)(C)c1cc(NC(=O)Nc2ccc(NC(=O)c3ncccc3O)cc2)no1, the Kd [5] was 4.7 nM, the Kd [8] was 2.6 nM and the IC50 (MV4-11 [1]) was 0.71 nM. The Kd [2] was 0.74 nM, the Kd [13] was 0.96 nM and the Kd [14] was 4.4 nM.

In the case of CC(C)(C)c1cc(NC(=O)Nc2ccc(NC(=O)c3ccccn3)cc2)no1, the IC50 (MV4-11 [1]) is reported as 1.6 nM and the Kd [2] is reported as 0.76 nM.

CC(C)(C)c1cc(NC(=O)Nc2ccc(C(=O)Nc3cccnc3)cc2)no1 gave an IC50 (MV4-11 [1]) of 199 nM and a Kd [2] of 25 nM.
